# Laboratory results taken from patent US12129493B2, “Host cells and methods useful for producing unnatural terpenoids using a novel artificial metalloenzyme” (The Regents of the University of California, priority 2020, dated 2024).
# Like-named read-outs stand apart in the source and are kept apart here.
# Assays:
# [1] = tested on: E. coli cells expressing the artificial biosynthetic pathway (pJBEI6410+pJHA170); test: Cell viability test with CFU (colony forming units) assay; type: cell-based; settings: high concentration, 4 h exposure
# Description: 9. Cell viability test with CFU (colony forming units) assay. E. coli cells co-transformed with pJBEI6410 and pJHA170 were grown as described in 7, except for the following steps. […] A portion of cell culture (1.4 mL) was transferred into Falcon 14 mL round-bottom tube. […] For the control group, only sterile ddH2O (1%, v/v) was added. The cultures were further incubated at 30° C., 200 rpm for 4 h. Then the cultures were diluted 10^5 times. Aliquots of diluted cell suspension (50 μL) were plated onto LB agar plates. The plates were incubated at 30° C. for 24 h. The colonies grown on the plates were manually counted and the percentage of viable cells in each group was calculated by normalizing the number of colonies grown in the control group as 100%.
# apo-myoglobin [2] = settings: from literature (ref. 9); cited from earlier work
# [3] = target: T1, Sulfolobus CYP119 (cytochrome P450 119, parent sequence SEQ ID NO: 1), apo form, CYP119-141 mutant (C317G, T213G, V254L, L155W) (Sulfolobus acidocaldarius, UniProt Q55080, C317G/L155W/T213G/V254L); test: Binding affinity of apo-CYP119 towards Ir(Me)MPIX/hemin (intrinsic fluorescence quenching, Benesi-Hildebrand); design: species or system Sulfolobus solfataricus; settings: excitation 294 nm, 10 mM TRIS buffer pH 8.0, Benesi-Hildebrand analysis
# T1 construct: made in house
# T1 sequence (Q55080 whole entry L155W/T213G/V254L/C317G): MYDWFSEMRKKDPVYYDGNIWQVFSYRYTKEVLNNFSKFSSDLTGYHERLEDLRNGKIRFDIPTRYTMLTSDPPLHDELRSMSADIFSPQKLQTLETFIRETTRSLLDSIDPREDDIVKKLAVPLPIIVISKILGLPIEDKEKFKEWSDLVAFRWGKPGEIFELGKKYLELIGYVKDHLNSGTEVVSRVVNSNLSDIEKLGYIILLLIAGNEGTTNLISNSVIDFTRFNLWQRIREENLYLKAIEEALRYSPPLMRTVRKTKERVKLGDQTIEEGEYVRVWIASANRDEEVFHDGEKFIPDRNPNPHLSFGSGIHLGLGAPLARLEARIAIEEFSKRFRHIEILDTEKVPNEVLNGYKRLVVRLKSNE
# Description: Intrinsic fluorescence quenching;^8 Modified from a reported procedure, aliquots (10 μL) of metalloporphyrin stock solutions (in DMSO) were added to a solution containing 0.15 mg/L apo-CYP119 (CYP119-141 mutant, 800 μL, 10 mM TRIS buffer, pH 8.0). This addition caused the concentration of the protein to decrease from its initial value to a final concentration of 0.148 mg/L in the process. After each addition, the emission spectrum of CYP119 was recorded upon excitation at 294 nm. In quenching experiments, the concentration of the chromophore (CYP119 or porphyrin) was kept sufficiently low (<0.15) to ensure uniform light absorption throughout the sample and reduced inner filter effects. The fluorescence emission intensity was calculated as the integral of the emission spectrum in the recorded wavelength range (305-450 nm).
# apo-ascorbate peroxidase [4] = settings: from literature (ref. 9); cited from earlier work
# apo-myoglobin [5] = settings: literature; cited from earlier work
# apo-ascorbate peroxidase [6] = settings: literature; cited from earlier work
structure (smiles),measurement,setting,value
"CCOC(=O)C=[N+]=[N-] [EDA, ethyl diazoacetate]",toxicity to E. coli cells (viable cells),[1],toxic
"C=CC1=C(C)c2cc3[nH]c(cc4nc(cc5[nH]c(cc1n2)c(C)c5CCC(=O)O)C(CCC(=O)O)=C4C)c(C)c3C=C.[Fe+3] [Fe(Cl)PPIX, reference compound]",Kd,apo-myoglobin [2],600 nM
same,Kb,[3],6.7(0.7) × 10^5 M^−1
same,Kd,[3],1500 nM
same,Kd,apo-ascorbate peroxidase [4],190 nM
C=CC1=C(C)c2cc3[n-]c(cc4[n-]c(cc5nc(cc1n2)C(C)=C5C=C)c(C)c4CCC(=O)O)c(CCC(=O)O)c3C.[Cl-].[Fe+3] [Fe(Cl)PPIX],Kd,apo-myoglobin [5],600 nM
same,Kd,apo-ascorbate peroxidase [6],190 nM
